Measured values published in PMC7203344, “Sirtuin 1 Inhibiting Thiocyanates (S1th)—A New Class of Isotype Selective Inhibitors of NAD^+ Dependent Lysine Deacetylases” (Frontiers in Oncology, 2020).

Experiments:
[1] = tested on: deubiquitinases (DUBs); assay: DUB labeling on HEK293T cell lysate with Rhodamine-Ub-PA probe; assay type: biochemical, human; set-up: key to Qualitative pan-DUB inhibition @ 10 μM / Qualitative pan-DUB inhibition @ 50 μM: n.i.: no inhibition (<10%); +: low inhibition; +++: full inhibition; conditions: for Qualitative pan-DUB inhibition @ 10 μM / Qualitative pan-DUB inhibition @ 50 μM: HEK293T cell lysate
Procedure: Pan-inhibition of deubiquitinases (DUBs) was tested using HEK293T cell lysate (human embryonic kidney cells, human). Cells were harvested and resuspended in HR buffer (50 mM Tris, 5 mM MgCl2, 250 mM sucrose, 1 mM DTT, pH 7.4). Cell lysis was achieved by sonication (Bioruptor, Diagenode, high intensity for 10 min with an ON/OFF cycle of 30 s) at 4°C and the cell debris was removed by centrifugation at 13,500 rpm for 15 min. Cell lysate protein concentration was determined with a NanoDrop spectrophotometer (NanoDrop One™ Spektrophotometer, Thermo Fisher, MA, USA) by measuring absorbance at 280 nm. Nineteen microliter of the lysate (2 μg/μL) were incubated with inhibitors dissolved in DMSO at various concentrations or DMSO as a control for 30 min at 37°C. Afterwards 1 μL of Rhodamine-Ub-PA (1 μM final assay concentration) was added to each sample, followed by further incubation for 40 min at 37°C ([61]). The labeling reaction was stopped by addition of NuPAGE 4× LDS sample buffer (Invitrogen Life Technologies, Carlsbad, CA, USA) containing β-mercaptoethanol and boiling for 7 min at 95°C. The proteins of the samples as well as protein marker (PageRuler™ Pre-stained Protein Ladder, 10–250 kDa, Thermo Fisher, MA, USA) were resolved by a 4–12% SDS-PAGE using the NuPAGE system with MOPS running buffer (Invitrogen Life Technologies, Carlsbad, CA, USA). The resulting gel was scanned with a Typhoon imager (GE Healthcare Life Sciences, USA) to visualize the Rhodamine-Ub-PA probe and Cy5 (marker). Subsequently the gel was stained with InstantBlue™ Protein Stain (Expedeon, UK) and scanned on a Amersham scanner (Amersham Typhoon gel and blot imaging system, GE Healthcare Life Sciences, USA).

[2] = biological target: T1, human Sirt5 (Homo sapiens, UniProt Q9NXA8); assay: Homogeneous ZKsA-based fluorescence assay for Sirt5; assay type: biochemical; conditions: inhibition tested @ 10 μM
T1 construct: Recombinant human Sirt5_37−310 was purchased readily in Tris Buffer; purchased Enzo Life Sciences (NY, USA)
T1 sequence (Q9NXA8 37-310): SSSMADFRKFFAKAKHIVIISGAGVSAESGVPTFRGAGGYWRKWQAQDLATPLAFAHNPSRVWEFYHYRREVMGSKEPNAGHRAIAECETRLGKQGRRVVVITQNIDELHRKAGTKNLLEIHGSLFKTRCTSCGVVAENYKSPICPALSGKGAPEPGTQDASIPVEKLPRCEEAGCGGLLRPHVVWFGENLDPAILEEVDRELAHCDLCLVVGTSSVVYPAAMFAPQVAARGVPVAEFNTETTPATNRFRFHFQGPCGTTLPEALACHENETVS
Procedure: Recombinant human Sirt5_37−310 was purchased readily in Tris Buffer [25 mM Tris, 100 mM NaCl, 5 mM DTT, 10% glycerol (v/v)] from Enzo Life Sciences (NY, USA). Human Sirt3_118−395 was expressed and purified as described previously ([54]). For expression of human Sirt1_134−747 and Sirt2_56−356 chemically competent cells of E. coli BL21 Star (DE3) were transformed with the expression vectors pET30S-hSirt1_134−747 or pET30S-hSirt2_56−356. Bacteria were grown at 37°C in 2×YT medium supplemented with 50 μg·mL^−1 of kanamycin to an OD600 of 0.6. Then isopropyl-β-D-1-thiogalactopyranoside (IPTG) was added to a final concentration of 1 mM to induce gene expression. After further cultivation at 20°C for 12 h, the cells were harvested by centrifugation for 15 min at 5,000 g. The cells were resuspended in lysis buffer [100 mM Tris/HCl buffer at pH 8.0, 150 mM NaCl and 10% (v/v) glycerol] and disrupted by ultrasonication (Branson Digital Sonifier 250) at 70% amplitude for 10 min (3 s working, 10 s pause). The crude extract was cleared by centrifugation at 100,000 g for 1 h, and the supernatant was loaded onto a Strep-Tactin Superflow cartridge (5 ml bed volume, IBA Lifescience, Germany). Target proteins were eluted with lysis buffer containing 5 mM D-Desthiobiotin (IBA Lifescience, Germany) and further separated by size-exclusion chromatography (Superdex S200 26/60, GE Healthcare, IL, USA) equilibrated in Tris/HCl buffer (20 mM, 150 mM NaCl, pH 8.0). Pure protein was concentrated by ultrafiltration, flash-frozen in liquid nitrogen and stored at −80°C until further use. Identity as well as purity were verified by SDS-PAGE ([55]) and protein concentration was determined by the bicinchoninic acid (BCA) method, using bovine serum albumin (BSA) as a standard ([56]). Deacetylase activity was confirmed to be NAD^+-dependent and could be inhibited with the physiological sirtuin inhibitor nicotinamide.
Inhibition of Sirt5 was measured using a general procedure described before with small modifications ([58]). Sirt5 was purchased from Enzo Life Science (NY, USA) and used as received. Z-Lys(succ)-aminomethyl coumarin (ZKsA) was used as a substrate for Sirt5 mediated desuccinylation. In black 384-well non-binding plates (Greiner Bio-One, Monroe, NC) Sirt5 was mixed with 2 μL of ZKsA (1 mM stock solution in assay buffer [(50 mM Tris·HCl, 137 mM NaCl, 2.7 mM KCl, 1 mM MgCl2, pH 8.0, and 0.1% PEG8000), 100 μM final assay concentration], 1 μL of Inhibitor dissolved in DMSO or DMSO as a control [final DMSO concentration 5% (v/v)], 2 μL NAD^+ (5 mM stock solution in assay buffer, final assay concentration 500 μM) and filled up to a total volume of 20 μL with assay buffer. The mixture was incubated for 1 h at 37°C and 140 rpm before 4 μL of trypsin solution (50 mM Tris, 100 mM NaCl, pH 8.0, 6 mg/mL trypsin buffer, 1 mg/mL final assay concentration) was added to stop the enzymatic reaction. After 2 min of incubation at 37°C and 140 rpm fluorescence intensity was detected as described above. Sirt5 concentration was adjusted to 15–30% substrate conversion. A negative control without enzyme and a positive control containing AMC instead of ZKsA were performed as well. Inhibition was calculated in % in relation to a DMSO control and was determined in triplicates.

Row | Compound | Qualitative pan-DUB inhibition @ 10 μM [1] | Qualitative pan-DUB inhibition @ 50 μM [1] | inhibition of DUBs (in words) ([1]; HEK cell lysate, Rhodamine-Ub-PA probe) | inhibition at 10 µM [2] [%]
1 | N#CSc1cc(SC#N)c(N)nc1N [PR-619, reference compound] | + | +++ | inhibits all DUBs tested in a concentration dependent manner | 28
2 | N#CSc1cccc(NC(=O)[C@H]2CC=CC[C@H]2C(=O)O)c1 [S1th 10] | n.i. (no inhibition (<10%)) | n.i. (no inhibition (<10%)) | – | < 10
3 | CCCCNC(=O)Nc1cccc(SC#N)c1 [S1th 11] | n.i. (no inhibition (<10%)) | n.i. (no inhibition (<10%)) | – | < 10
4 | COc1ccc(SC#N)cc1OCC(=O)N(CCC#N)CCC#N [S1th 12] | n.i. (no inhibition (<10%)) | n.i. (no inhibition (<10%)) | – | < 10
5 | N#CSc1cccc(NS(=O)(=O)c2ccc3c(c2)OCCO3)c1 [S1th 13] | n.i. (no inhibition (<10%)) | n.i. (no inhibition (<10%)) | – | < 10
